According to patent US12043599B2, “Herbicidal compounds” (SYNGENTA PARTICIPATIONS AG, priority 2018, dated 2024):

Key:
Assay type in all cases: in vivo
wheat = assay: Post-emergence crop safety test on wheat crop plants
Description: (§1) Seeds of a variety of test species are sown in standard soil in pots (Lolium perenne (LOLPE), Setaria faberi (SETFA), Alopecurus myosuroides (ALOMY), Echinochloa crus-galli (ECHCG), Avena fatua (AVEFA)). After cultivation for one day (pre-emergence) or after 8 days cultivation (post-emergence) under controlled conditions in a glasshouse (at 24/16° C., day/night; 14 hours light; 65% humidity), the plants are sprayed with an aqueous spray solution derived from the formulation of the technical active ingredient in acetone/water (50:50) solution containing 0.5% Tween 20 (polyoxyethelyene sorbitan monolaurate, CAS RN 9005-64-5). Compounds are applied at […]. The test plants are then grown in a glasshouse under controlled conditions in a glasshouse (at 24/16° C., day/night; 14 hours light; 65% humidity) and watered twice daily. After 13 days for pre and post-emergence, the test is evaluated for the percentage damage caused to the plant. The biological activities are shown in the following table on a five point scale (5=80-100%; 4=60-79%; 3=40-59%; 2=20-39%; 1=0-19%).
Using procedures outlines above, wheat and barley crop plants and a weed species (SETFA) are treated post-emergence with compound A11 of the present invention or comparator compound C1 (Compound A-38 from WO2014/096289) at the application rates indicated. The compounds were also applied to wheat in conjunction with the safener compound cloquintocet-mexyl (CQC) at 50 g/ha.

barley = assay: Post-emergence crop safety test on barley crop plants
Description: as §1
Using procedures outlines above, wheat and barley crop plants and a weed species (SETFA) are treated post-emergence with compound A11 of the present invention or comparator compound C1 (Compound A-38 from WO2014/096289) at the application rates indicated. […]

Setaria faberi (SETFA) = assay: Post-emergence herbicidal glasshouse test, percentage damage
Summary of the method: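 Wheat, barley and Setaria faberi were sprayed post-emergence after 8 days' growth (24/16 °C, 14 h light, 65% humidity) with compound in acetone/water (50:50) containing 0.5% Tween 20, at the indicated rates. On wheat, compounds were also applied with cloquintocet-mexyl at 50 g/ha. Damage was scored after 13 days on a five-point scale (5=80-100% to 1=0-19%).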

CC#Cc1cc(C)c(C2C(=O)CC3(CCN(C(=O)OC)CC3)CC2=O)c(C)c1 [Compound A11]
Wheat, percentage damage (wheat; rate 30): 10% | Wheat, percentage damage (wheat; rate 60): 30% | Wheat, percentage damage (wheat; rate 60 + CQC (safener cloquintocet-mexyl at 50 g/ha)): 0% | crop safety vis-à-vis prior art compound C1 (wheat; wheat and barley): significantly improved crop safety | Barley, percentage damage (barley; rate 30): 10% | Barley, percentage damage (barley; rate 60): 40% | overall weed control (Setaria faberi (SETFA)): good overall weed control | SETFA, percentage damage (Setaria faberi (SETFA); rate 30): 100% | SETFA, percentage damage (Setaria faberi (SETFA); rate 60): 100%
